How the values were obtained:
[1] = target: HIS-TGFβR2 WT (Homo sapiens, UniProt P37173); assay: HTRF probe-displacement assay, HIS-TGFβR2 WT; type: binding
[2] = target: T1, HIS-TGFβR1 T204D (Homo sapiens, UniProt P36897, T204D); assay: HTRF probe-displacement assay, HIS-TGFβR1 T204D; type: binding; details: read-out: TGFβR1 (μM) IC50
T1 sequence (P36897 34-503 T204D): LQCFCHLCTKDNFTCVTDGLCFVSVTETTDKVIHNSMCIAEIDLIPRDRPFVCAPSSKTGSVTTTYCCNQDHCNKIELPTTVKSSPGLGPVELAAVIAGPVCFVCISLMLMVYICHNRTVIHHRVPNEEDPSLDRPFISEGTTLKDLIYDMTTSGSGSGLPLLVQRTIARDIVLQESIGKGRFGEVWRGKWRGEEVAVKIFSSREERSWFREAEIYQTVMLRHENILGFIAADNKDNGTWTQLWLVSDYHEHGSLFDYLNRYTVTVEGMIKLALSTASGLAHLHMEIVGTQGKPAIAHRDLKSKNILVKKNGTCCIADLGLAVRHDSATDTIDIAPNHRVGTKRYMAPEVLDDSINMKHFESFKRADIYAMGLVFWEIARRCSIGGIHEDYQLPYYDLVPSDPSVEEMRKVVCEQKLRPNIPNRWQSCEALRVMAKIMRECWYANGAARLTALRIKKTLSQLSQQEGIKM

Chain of HIS-TGFβR2 WT (P37173 23-567): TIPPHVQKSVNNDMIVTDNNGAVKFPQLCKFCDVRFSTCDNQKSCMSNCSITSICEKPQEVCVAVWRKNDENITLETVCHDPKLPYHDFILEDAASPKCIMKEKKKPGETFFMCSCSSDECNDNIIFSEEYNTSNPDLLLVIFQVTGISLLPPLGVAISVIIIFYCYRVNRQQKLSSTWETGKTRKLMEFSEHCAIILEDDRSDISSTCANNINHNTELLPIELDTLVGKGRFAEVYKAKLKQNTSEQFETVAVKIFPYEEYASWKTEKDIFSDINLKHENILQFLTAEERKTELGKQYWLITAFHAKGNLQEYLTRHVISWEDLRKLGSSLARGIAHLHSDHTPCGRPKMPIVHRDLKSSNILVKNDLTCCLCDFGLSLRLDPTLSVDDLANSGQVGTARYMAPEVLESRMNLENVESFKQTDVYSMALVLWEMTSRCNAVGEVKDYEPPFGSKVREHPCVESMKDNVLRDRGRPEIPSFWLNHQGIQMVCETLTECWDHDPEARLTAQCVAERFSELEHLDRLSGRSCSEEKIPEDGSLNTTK

SMILES | IC50 [1] [µM] | IC50 [2] [µM]
COc1ccc(-c2c(-c3ccnc(NC(=O)CN4CCOCC4)c3)[nH]c3cccnc23)cn1 [Example 286, N-(4-(3-(6-Methoxypyridin-3-yl)-1H-pyrrolo[3,2-b]pyridin-2-yl)pyridin-2-yl)-2-morpholinoacetamide] | 0.253 | 0.001
CC(=O)Nc1cc(-c2[nH]c3c(C)ccnc3c2-c2ncc(C)s2)ccn1 [Example 218, N-(4-(7-Methyl-3-(5-methylthiazol-2-yl)-1H-pyrrolo[3,2-b]pyridin-2-yl)pyridin-2-yl)acetamide] | 0.594 | 0.0017
CC(=O)Nc1cc(-c2[nH]c3cccnc3c2-c2ccc(F)c(C(F)F)n2)ccn1 [Example 193, N-(4-(3-(6-(Difluoromethyl)-5-fluoropyridin-2-yl)-1H-pyrrolo[3,2-b]pyridin-2-yl)pyridin-2-yl)acetamide] | > 15 | 0.0006
COc1ccc(-c2c(-c3ccnc(NC(=O)CN4CCN(C)CC4)c3)[nH]c3cc(OC)cnc23)nc1 [Example 119, N-{4-[6-Methoxy-3-(5-methoxypyridin-2-yl)-1H-pyrrolo[3,2-b]pyridin-2-yl]pyridin-2-yl}-2-(4-methylpiperazin-1-yl)acetamide] | > 15 | < 0.001
CC(=O)Nc1cc(-c2[nH]c3cccnc3c2-c2ncccn2)ccn1 [Example 8, N-{4-[3-(Pyrimidin-2-yl)-1H-pyrrolo[3,2-b]pyridin-2-yl]pyridin-2-yl}acetamide] | 2.03 | 0.009
[2H]C([2H])([2H])Oc1ccc(-c2c(-c3ccnc(NC(C)=O)c3)[nH]c3cc(Cl)cnc23)nc1 [Example 105, N-(4-(6-Chloro-3-(5-(methoxy-d3)pyridin-2-yl)-1H-pyrrolo[3,2-b]pyridin-2-yl)pyridin-2-yl)acetamide] | > 15 | 0.005
CC(=O)Nc1cc(-c2[nH]c3cc(Cl)cnc3c2-c2cccc(OC(C)C)n2)ccn1 [Example 255, N-(4-(6-Chloro-3-(6-isopropoxypyridin-2-yl)-1H-pyrrolo[3,2-b]pyridin-2-yl)pyridin-2-yl)acetamide] | > 15 | 0.433
CC(=O)Nc1cc(-c2[nH]c3c([C@@H](C)O)ccnc3c2-c2cccc(C(F)F)n2)ccn1 (single isomer, unassigned) [Example 146] | 1.78 | 0.001
CC(=O)Nc1cc(-c2[nH]c3c(C(C)O)ccnc3c2-c2ccc(F)nc2)ccn1 (centres unmarked) [Example 261, N-(4-(3-(6-Fluoropyridin-3-yl)-7-(1-hydroxyethyl)-1H-pyrrolo[3,2-b]pyridin-2-yl)pyridin-2-yl)acetamide] | 0.011 | 0.005
COc1ccnc2c(-c3nc(C)cs3)c(-c3ccnc(NC(C)=O)c3)[nH]c12 [Example 234, N-(4-(7-Methoxy-3-(4-methylthiazol-2-yl)-1H-pyrrolo[3,2-b]pyridin-2-yl)pyridin-2-yl)acetamide] | 0.572 | 0.0016
CC(=O)Nc1cc(-c2[nH]c3cc(Cl)cnc3c2-c2ccc(F)cn2)ccn1 [Example 42, N-{4-[6-Chloro-3-(5-fluoropyridin-2-yl)-1H-pyrrolo[3,2-b]pyridin-2-yl]pyridin-2-yl}acetamide] | 0.46 | 0.004
CC(=O)Nc1cc(-c2[nH]c3cccnc3c2-c2nc(C)ccc2F)ccn1 [Example 107, N-(4-(3-(3-Fluoro-6-methylpyridin-2-yl)-1H-pyrrolo[3,2-b]pyridin-2-yl)pyridin-2-yl)acetamide] | 8.14 | 0.001
COc1ccc(-c2c(-c3ccnc(NC(C)=O)c3)[nH]c3cc(CN)cnc23)cn1 [Example 79, N-(4-(6-(Aminomethyl)-3-(6-methoxypyridin-3-yl)-1H-pyrrolo[3,2-b]pyridin-2-yl)pyridin-2-yl)acetamide] | 0.16 | 0.007
COc1ccnc2c(-c3cccc(C(F)F)n3)c(-c3ccnc(NC(C)=O)c3)[nH]c12 [Example 267, N-(4-(3-(6-(Difluoromethyl)pyridin-2-yl)-7-methoxy-1H-pyrrolo[3,2-b]pyridin-2-yl)pyridin-2-yl)acetamide] | > 15 | 0.002
CC(=O)Nc1cc(-c2[nH]c3c(CN4CCOCC4)ccnc3c2-c2cccc(C(F)F)n2)ccn1 [Example 140, N-(4-{3-[6-(Difluoromethyl)pyridin-2-yl]-7-(morpholin-4-ylmethyl)-1H-pyrrolo[3,2-b]pyridin-2-yl}pyridin-2-yl)acetamide] | 7.6 | 0.001

Second part, the compound after the results:

IC50 [1] [µM] | IC50 [2] [µM] | SMILES
> 15 | 0.003 | CC(=O)Nc1cc(-c2[nH]c3c(C4CCOCC4)ccnc3c2-c2cccc(C(F)F)n2)ccn1 [Example 135, N-(4-{3-[6-(Difluoromethyl)pyridin-2-yl]-7-(oxan-4-yl)-1H-pyrrolo[3,2-b]pyridin-2-yl}pyridin-2-yl)acetamide]
2 | 0.0939 | CC(=O)Nc1cc(-c2[nH]c3cccnc3c2-c2ccn[nH]2)ccn1 [Example 191, N-(4-(3-(1H-Pyrazol-5-yl)-1H-pyrrolo[3,2-b]pyridin-2-yl)pyridin-2-yl)acetamide]
1.1 | 0.017 | CNC(=O)c1cc(Cl)nc2c(-c3ccc(OC)nc3)c(-c3ccnc(NC(C)=O)c3)[nH]c12 [Example 56, 5-Chloro-2-(2-acetamidopyridin-4-yl)-3-(6-methoxypyridin-3-yl)-N-methyl-1H-pyrrolo[3,2-b]pyridine-7-carboxamide]
> 15 | 0.039 | CC(=O)Nc1cc(-c2[nH]c3cccnc3c2-c2ccc3ncccc3c2)ccn1 [Example 22, N-{4-[3-(Quinolin-6-yl)-1H-pyrrolo[3,2-b]pyridin-2-yl]pyridin-2-yl}acetamide]
0.36 | 0.037 | CC(=O)Nc1cc(-c2[nH]c3cc(Cl)cnc3c2-c2cccc(CO)n2)ccn1 [Example 67, N-(4-{6-Chloro-3-[6-(hydroxymethyl)pyridin-2-yl]-1H-pyrrolo[3,2-b]pyridin-2-yl}pyridin-2-yl)acetamide]
5.99 | 0.001 | O=C(CN1CCN(CCO)CC1)Nc1cc(-c2[nH]c3cc(Cl)cnc3c2-c2ccc(F)cn2)ccn1 [Example 246, N-(4-(6-Chloro-3-(5-fluoropyridin-2-yl)-1H-pyrrolo[3,2-b]pyridin-2-yl)pyridin-2-yl)-2-(4-(2-hydroxyethyl)piperazin-1-yl)acetamide]
1.36 | 0.0037 | CC(=O)Nc1cc(-c2[nH]c3c(C)ccnc3c2-c2csc(C)n2)ccn1 [Example 221, N-(4-(7-Methyl-3-(2-methylthiazol-4-yl)-1H-pyrrolo[3,2-b]pyridin-2-yl)pyridin-2-yl)acetamide]
> 15 | 3.54 | CC(=O)Nc1cc(-c2[nH]c3cccnc3c2-c2nccc(Cl)n2)ccn1 [Example 197, N-(4-(3-(4-Chloropyrimidin-2-yl)-1H-pyrrolo[3,2-b]pyridin-2-yl)pyridin-2-yl)acetamide]
> 15 | 0.007 | COc1ccc(-c2c(-c3ccnc(NC(=O)CN4CCN(C)CC4)c3)[nH]c3cc(Cl)cnc23)nc1 [Example 249, N-(4-(6-Chloro-3-(5-methoxypyridin-2-yl)-1H-pyrrolo[3,2-b]pyridin-2-yl)pyridin-2-yl)-2-(4-methylpiperazin-1-yl)acetamide]
0.089 | 0.249 | CC(=O)Nc1cc(-c2[nH]c3cccnc3c2-c2cn[nH]c2)ccn1 [Example 189, N-(4-(3-(1H-Pyrazol-4-yl)-1H-pyrrolo[3,2-b]pyridin-2-yl)pyridin-2-yl)acetamide]
> 15 | 0.007 | CC(=O)Nc1cc(-c2[nH]c3c(-c4ccnn4C)ccnc3c2-c2cccc(C(F)F)n2)ccn1 [Example 129, N-(4-{3-[6-(Difluoromethyl)pyridin-2-yl]-7-(1-methyl-1H-pyrazol-5-yl)-1H-pyrrolo[3,2-b]pyridin-2-yl}pyridin-2-yl)acetamide]
4.07 | 0.002 | CN(C)C1CCN(CC(=O)Nc2cc(-c3[nH]c4cc(Cl)cnc4c3-c3ccc(F)cn3)ccn2)CC1 [Example 245, N-(4-(6-Chloro-3-(5-fluoropyridin-2-yl)-1H-pyrrolo[3,2-b]pyridin-2-yl)pyridin-2-yl)-2-(4-(dimethylamino)piperidin-1-yl)acetamide]
0.503 | 0.001 | CC(=O)Nc1cc(-c2[nH]c3c(CO)ccnc3c2-c2cccc(Cl)n2)ccn1 [Example 276, N-(4-(3-(6-Chloropyridin-2-yl)-7-(hydroxymethyl)-1H-pyrrolo[3,2-b]pyridin-2-yl)pyridin-2-yl)acetamide]
0.49 | 0.32 | CC(=O)Nc1cc(-c2[nH]c3cccnc3c2-c2cc(C)cc(Cl)n2)ccn1 [Example 30, N-{4-[3-(6-Chloro-4-methylpyridin-2-yl)-1H-pyrrolo[3,2-b]pyridin-2-yl]pyridin-2-yl}acetamide]
> 15 | 0.002 | COCCOc1cnc2c(-c3ccc(OC)cn3)c(-c3ccnc(NC(C)=O)c3)[nH]c2c1 [Example 95, N-(4-(6-(2-Methoxyethoxy)-3-(5-methoxypyridin-2-yl)-1H-pyrrolo[3,2-b]pyridin-2-yl)pyridin-2-yl)acetamide]
> 15 | 1.49 | CC(=O)Nc1cc(-c2[nH]c3cccnc3c2-c2cccc3cccnc23)ccn1 [Example 21, N-{4-[3-(Quinolin-8-yl)-1H-pyrrolo[3,2-b]pyridin-2-yl]pyridin-2-yl}acetamide]

Reference: patent US9708316B2 (BRISTOL-MYERS SQUIBB COMPANY, priority 2014, dated 2017)
